# Results published in patent US10023592B2, “Bromodomain inhibitors” (Celgene Quanticel Research, Inc., priority 2013, dated 2018).
# Where two headings read alike, the source gives them in different places.
# How the values were obtained:
# [1] = molecular target: BRD4(BD1) (Homo sapiens (Human), UniProt O60885); experiment: In vitro enzyme inhibition assay (BRD4 AlphaScreen); format: binding
# Outline: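 AlphaScreen proximity readout, using streptavidin donor and Ni-chelate acceptor beads at 5 μg/mL final, monitors biotin-H4 tetraacetylated peptide interaction with purified His-tagged BRD4.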
# [2] = tested on: Raji, human Burkitts lymphoma cells; experiment: Cell-MTS proliferation assay, Raji; format: cell-based; settings: 168 hr
# Outline: (§1)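 Seven-day colorimetric MTS assay; compound at 11 concentrations from 100 μM down to 2.0 nM final, added a day after plating. IC50 from OD490 normalised to DMSO controls.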
# [3] = tested on: HL-60, human proleukemia cells; experiment: Cell-MTS proliferation assay, HL-60; format: cell-based; settings: 168 hr
# Outline: as §1
# [4] = tested on: NCI-H460, human non-small cell lung cancer cells; experiment: Cell-MTS proliferation assay, NCI-H460; format: cell-based; settings: 168 hr
# Outline: as §1
# [5] = in vitro enzyme inhibition assay
# [6] = Homo sapiens, Raji, Cell-MTS proliferation
# [7] = Homo sapiens, HL-60, Cell-MTS proliferation
# [8] = Homo sapiens, NCI-H460, Cell-MTS proliferation
# [9] = Homo sapiens, Raji, Cell-MTS, class symbols A/B/C
# [10] = Homo sapiens, HL-60, Cell-MTS, class symbols A/B/C
# [11] = Homo sapiens, NCI-H460, Cell-MTS, class symbols A/B/C
# [12] = Homo sapiens, Cell-MTS proliferation, Raji cells
# [13] = Homo sapiens, Cell-MTS proliferation, HL-60 cells
# [14] = Homo sapiens, Cell-MTS proliferation, NCI-H460 cells
SMILES,"IC50 [1, 5]","IC50 [2, 6]","IC50 [3, 7]","IC50 [4, 8]",also measured
"CCS(=O)(=O)Nc1ccc(Oc2ccc(F)cc2F)c(-c2cn(C)c(=O)c3nc(C)oc23)c1 [Example 241, N-[4-(2,4-difluorophenoxy)-3-(2,5-dimethyl-4-oxo-[1,3]oxazolo[4,5-c]pyridin-7-yl)phenyl]ethanesulfonamide]",< 500 nM,< 500 nM,< 500 nM,> 5000 nM,–
"CCS(=O)(=O)Cc1ccc(Oc2ccc(F)cc2F)c(-c2cc(OC(F)F)c(=O)n(C)c2)c1 [Example 291, 3-(difluoromethoxy)-5-[2-(2,4-difluorophenoxy)-5-(ethylsulfonylmethyl)phenyl]-1-methylpyridin-2-one]",< 500 nM,< 500 nM,< 500 nM,> 5000 nM,–
"Cn1cc(-c2cc(S(C)(=O)=O)ccc2OCC2CC2)n2cncc2c1=O [Example 130, 5-[2-(cyclopropylmethoxy)-5-methylsulfonylphenyl]-7-methylimidazo[1,5-a]pyrazin-8-one]",–,–,–,–,"IC50 ([1]; class symbols A/B/C): < 500 nM; IC50 [2, 9]: 500 to 5000 nM; IC50 [3, 10]: < 500 nM; IC50 [4, 11]: > 5000 nM"
"COc1ccc(-c2cn(C)c(=O)c3cnccc23)cc1S(=O)(=O)NCc1ccccc1 [Example 54, N-benzyl-2-methoxy-5-(2-methyl-1-oxo-2,7-naphthyridin-4-yl) benzenesulfonamide]",–,–,–,–,"IC50 ([1]; class symbols A/B/C): > 5000 nM; IC50 ([2]; Cell-MTS, class symbols A/B/C): > 5000 nM; IC50 ([3]; Cell-MTS, class symbols A/B/C): 500 to 5000 nM; IC50 ([4]; Cell-MTS, class symbols A/B/C): > 5000 nM"
"COc1ccc(S(=O)(=O)CCO)cc1-c1cn(C)c(=O)c2ccc(-c3cnn(C)c3)cc12 [Example 208, 4-[5-(2-hydroxyethylsulfonyl)-2-methoxyphenyl]-2-methyl-6-(1-methylpyrazol-4-yl)isoquinolin-1-one]",< 500 nM,500 to 5000 nM,< 500 nM,> 5000 nM,–
"Cn1cc(-c2cc(S(C)(=O)=O)ccc2NC(=O)C2CC2)c2ccccc2c1=O [Example 220, N-[2-(2-methyl-1-oxoisoquinolin-4-yl)-4-methylsulfonylphenyl]cyclopropanecarboxamide]",500 to 5000 nM,> 5000 nM,> 5000 nM,> 5000 nM,–
"Cn1cc(-c2cc(S(C)(=O)=O)ccc2OC2CCCOC2)c2ccccc2c1=O (stereo not drawn) [Example 179, 2-methyl-4-[5-methylsulfonyl-2-(oxan-3-yloxy)phenyl]isoquinolin-1-one]",< 500 nM,< 500 nM,< 500 nM,> 5000 nM,–
"Cn1cc(-c2cc(S(C)(=O)=O)ccc2OCC2CC2)c2c(c1=O)CCCC2 [Example 217, 4-[2-(cyclopropylmethoxy)-5-methylsulfonylphenyl]-2-methyl-5,6,7,8-tetrahydroisoquinolin-1-one]",< 500 nM,< 500 nM,< 500 nM,> 5000 nM,–
"Cn1cc(-c2cc(S(C)(=O)=O)ccc2OCC2CC2)n2cnnc2c1=O [Example 235, 5-[2-(cyclopropylmethoxy)-5-methylsulfonylphenyl]-7-methyl-[1,2,4]triazolo[4,3-a]pyrazin-8-one]",> 5000 nM,> 5000 nM,> 5000 nM,> 5000 nM,–
"CCS(=O)(=O)Nc1ncc(Oc2ccc(F)cc2F)c(-c2cn(C)c(=O)c3occc23)n1 [Example 263, N-[5-(2,4-difluorophenoxy)-4-(6-methyl-7-oxofuro[2,3-c]pyridin-4-yl)pyrimidin-2-yl]ethanesulfonamide]",< 500 nM,< 500 nM,< 500 nM,> 5000 nM,–
"CCS(=O)(=O)Nc1ccc(Oc2ccc(F)cc2F)c(-c2cc(OCC(F)(F)F)c(=O)n(C)c2)c1 [Example 290, N-[4-(2,4-difluorophenoxy)-3-[1-methyl-6-oxo-5-(2,2,2-trifluoroethoxy)pyridin-3-yl]phenyl]ethanesulfonamide]",< 500 nM,< 500 nM,< 500 nM,> 5000 nM,–
"Cn1cc(-c2cc(NS(C)(=O)=O)ccc2Oc2ccc(F)cc2F)ccc1=O [Example 100, N-[4-(2,4-difluorophenoxy)-3-(1-methyl-6-oxopyridin-3-yl)phenyl]methanesulfonamide]",–,–,–,–,"IC50 [1]: < 500 nM; IC50 [2, 9]: < 500 nM; IC50 [3, 10]: < 500 nM; IC50 [4, 11]: > 5000 nM"
"CC#CCOc1ccc(S(C)(=O)=O)cc1-c1cn(C)c(=O)c2ccccc12 [Example 184, 4-(2-but-2-ynoxy-5-methylsulfonylphenyl)-2-methylisoquinolin-1-one]",< 500 nM,500 to 5000 nM,< 500 nM,500 to 5000 nM,–
"Cn1cc(-c2cc(S(C)(=O)=O)ccc2OCC2CC2)ccc1=O [Example 98, 5-[2-(cyclopropylmethoxy)-5-methylsulfonylphenyl]-1-methylpyridin-2-one]",–,–,–,–,"IC50 ([1]; class symbols A/B/C): 500 to 5000 nM; IC50 [2, 9]: 500 to 5000 nM; IC50 [3, 10]: 500 to 5000 nM; IC50 [4, 11]: > 5000 nM"
"CCS(=O)(=O)Nc1ccc(Oc2ccc(F)cc2F)c(-c2cc(OC(F)F)c(=O)n(C)c2)c1 [Example 289, N-[3-[5-(difluoromethoxy)-1-methyl-6-oxopyridin-3-yl]-4-(2,4-difluorophenoxy)phenyl]ethanesulfonamide]",< 500 nM,< 500 nM,< 500 nM,> 5000 nM,–
"CCS(=O)(=O)Nc1ccc(Oc2ccc(F)cc2F)c(-c2cc(C3CC3)c(=O)n(C)c2)c1 [Example 140, N-[3-(5-cyclopropyl-1-methyl-6-oxopyridin-3-yl)-4-(2,4-difluorophenoxy)phenyl]ethanesulfonamide]",< 500 nM,< 500 nM,< 500 nM,> 5000 nM,–
"Cn1cc(-c2cc(S(C)(=O)=O)ccc2NCC2CC2)c2ccc(F)cc2c1=O [Example 196, 4-[2-(cyclopropylmethylamino)-5-methylsulfonylphenyl]-7-fluoro-2-methylisoquinolin-1-one]",< 500 nM,< 500 nM,< 500 nM,> 5000 nM,–

# The next lines start with results.
"IC50 [1, 5]","IC50 [2, 6]","IC50 [3, 7]","IC50 [4, 8]",SMILES,also measured
< 500 nM,–,–,–,"Cc1cc(-c2cc(S(C)(=O)=O)ccc2OC2CCOCC2)cn(C)c1=O [Example 420, 1,3-dimethyl-5-[5-methylsulfonyl-2-(oxan-4-yloxy)phenyl]pyridin-2-one]","IC50 [2, 12]: 500 to 5000 nM; IC50 [3, 13]: < 500 nM; IC50 [4, 14]: > 5000 nM"
< 500 nM,–,–,–,"Cc1cc(-c2cc(NS(C)(=O)=O)ccc2OC2CCC(F)(F)CC2)cn(C)c1=O [Example 447, N-[4-(4,4-difluorocyclohexyl)oxy-3-(1,5-dimethyl-6-oxopyridin-3-yl)phenyl]methanesulfonamide]","IC50 [2, 12]: < 500 nM; IC50 [3, 13]: < 500 nM; IC50 [4, 14]: > 5000 nM"
< 500 nM,–,–,–,"Cc1cc(-c2cc(S(C)(=O)=O)ccc2NC2CCCC2)cn(C)c1=O [Example 417, 5-[2-(cyclopentylamino)-5-methylsulfonylphenyl]-1,3-dimethylpyridin-2-one]","IC50 [2, 12]: < 500 nM; IC50 [3, 13]: < 500 nM; IC50 [4, 14]: > 5000 nM"
< 500 nM,–,–,–,"Cn1cc(-c2cc(CS(C)(=O)=O)ccc2Oc2ccc(F)cc2F)cc(F)c1=O [Example 437, 5-[2-(2,4-difluorophenoxy)-5-(methylsulfonylmethyl)phenyl]-3-fluoro-1-methylpyridin-2-one]","IC50 [2, 12]: < 500 nM; IC50 [3, 13]: < 500 nM; IC50 [4, 14]: > 5000 nM"
< 500 nM,–,–,–,"COc1cc(-c2cc(NS(C)(=O)=O)ccc2Oc2ccc(F)cc2F)cn(C)c1=O [Example 442, N-[4-(2,4-difluorophenoxy)-3-(5-methoxy-1-methyl-6-oxopyridin-3-yl)phenyl]methanesulfonamide]","IC50 [2, 12]: < 500 nM; IC50 [3, 13]: < 500 nM; IC50 [4, 14]: > 5000 nM"
< 500 nM,–,–,–,"Cc1cc(-c2cc(S(C)(=O)=O)ccc2O[C@H]2CC[C@H](O)CC2)cn(C)c1=O [Example 401, 5-[2-(4-hydroxycyclohexyl)oxy-5-methylsulfonylphenyl]-1,3-dimethylpyridin-2-one]","IC50 [2, 12]: 500 to 5000 nM; IC50 [3, 13]: < 500 nM; IC50 [4, 14]: > 5000 nM"
< 500 nM,< 500 nM,< 500 nM,500 to 5000 nM,"Cn1cc(-c2cc(OCc3ccccc3OC(F)F)cc(S(C)(=O)=O)c2)c2ccoc2c1=O [Example 348, 4-[3-[[2-(difluoromethoxy)phenyl]methoxy]-5-methylsulfonylphenyl]-6-methylfuro[2,3-c]pyridin-7-one]",–
< 500 nM,–,–,–,"Cn1cc(-c2cc(NS(C)(=O)=O)ccc2Oc2ccc(F)cc2F)c2occc2c1=O [Example 380, N-[4-(2,4-difluorophenoxy)-3-(5-methyl-4-oxofuro[3,2-c]pyridin-7-yl)phenyl] methanesulfonamide]","IC50 [2, 12]: < 500 nM; IC50 [3, 13]: < 500 nM; IC50 [4, 14]: > 5000 nM"
< 500 nM,500 to 5000 nM,< 500 nM,> 5000 nM,"CCS(=O)(=O)Cc1ccc(Oc2ccc(F)cc2F)c(-c2cn(C)c(=O)c3cncn23)c1 [Example 369, 5-[2-(2,4-difluorophenoxy)-5-(ethylsulfonylmethyl)phenyl]-7-methylimidazo[1,5-a]pyrazin-8-one]",–
< 500 nM,500 to 5000 nM,< 500 nM,> 5000 nM,"Cc1cc(-c2cc(OC(C)c3ccccc3)cc(S(C)(=O)=O)c2)cn(C)c1=O (stereo not drawn) [Example 336, 1,3-dimethyl-5-[3-methylsulfonyl-5-(1-phenylethoxy)phenyl]pyridin-2-one]",–
